Results reported in patent publication US8877948B2, “Synthesis process of polyol carbonate from polyols, conducted in using a solvent selective for polyols carbonates” (Arkema France, priority 2008, dated 2014).

Test: Solubility of glycerol carbonate, glycerol and urea in selective solvents
Assay type: physicochemical
Details: at 25° C.

## CC(C)C#N [Isobutyronitrile]
Solute glycerol carbonate in the listed solvent
  Solubility of Glycerol Carbonate: >500 mg/mL
Solute glycerol in the listed solvent
  Solubility of Glycerol: 10 mg/mL
Solute urea in the listed solvent
  Solubility of Urea: 60 mg/mL
